The results in this text go back to ChEMBL document CHEMBL5030560, “Berberine Molecular Recognition of the Parallel MYC G-Quadruplex in Solution” (J Med Chem, 2021).

Common to all, as to assay type: nucleic-acid assay
The subject of experiment [1] is Quadruplex DNA. The experiment in a line: Binding affinity to human MycG4 DNA (unknown origin) assessed as compound-DNA complex at 2:1 ratio by mass spectroscopy.
Experiment [2] deals with Quadruplex DNA. Kind of experiment: Binding affinity to human MycG4 DNA (unknown origin) assessed as apparent dissociation constant by fluorescence based binding assay. The following applies: read-out: Kd(app).
The subject of experiment [3] is Quadruplex DNA. The experiment in a line: Binding affinity to human MycG4 DNA (unknown origin) assessed as compound-DNA complex at 3:1 ratio by 1D NMR analysis.

Calls of active or inactive are those of the source. The calls are words filed in the database; no cut-off is given here.

Turning to `COc1ccc2cc3[n+](cc2c1OC)CCc1cc2c(cc1-3)OCO2` [BERBERINE], the outcome in experiment [1] and in experiment [3] was Active. In experiment [2], the Kd was 9.9 µM.
